Data: BigSolDB 2.1

CC(C)(C)c1ccc2c(c1)C(=O)c1ccccc1C2=O
solubility (mole fraction)
Details	303.15 K	308.15 K	313.15 K	318.15 K	323.15 K	333.15 K
in 2,6-dimethyl-4-heptanol	0.0245	0.0351	0.0461	0.0635	0.0998	0.21
in mesitylene	0.282	0.317	0.345	0.386	0.443	0.604
in trioctyl phosphate	0.169	0.185	0.209	0.254	0.296	0.39
